Data reported in US8349880B2, “Bicyclic compounds for the reduction of beta-amyloid production” (Bristol-Myers Squibb Company, priority 2009, dated 2013).

Test system: Aβ1-42 production
Experiment: Cellular assay for inhibition of Aβ1-42 production (H4 APP751 SWE clone 8.20)
Assay type: cell-based
Settings: 19 h, H4 APP751 SWE clone 8.20 cells, 19 h incubation; read-out: Activity Rating (Aβ42 cellular IC50, given as a number)
How it was run: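 H4 cells stably expressing APP751 with the Swedish mutation (1.5×10^4 cells/well) incubated with compound for 19 h at 37° C in DMEM with 0.0125% BSA. Secreted Aβ42 measured overnight at 4° C by HTRF-type pairing of 565 (Aβ42 neoepitope) and 26D6 (N-terminal) antibodies. IC50 from curve fit.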

IC50	SMILES
0.14 µM	COc1cc(Nc2nc3c(s2)CCCC3(C)c2ccccc2)ccc1-n1cnc(Cl)c1 (centres unmarked) [Example 73, N-(4-(4-chloro-1H-imidazol-1-yl)-3-methoxyphenyl)-4-methyl-4-phenyl-4,5,6,7-tetrahydrobenzo[d]thiazol-2-amine 2,2,2-trifluoroacetate]
0.19 µM	COc1cc(Nc2nc3c(s2)CCCC3(N)c2ccccc2)ccc1-n1cnc(C)n1 (centres unmarked) [Example 82, N2-(3-methoxy-4-(3-methyl-1H-1,2,4-triazol-1-yl)phenyl)-4-phenyl-4,5,6,7-tetrahydrobenzo[d]thiazole-2,4-diamine]
0.053 µM	Cc1ncnn1-c1ccc(Nc2nc3n(n2)CCC[C@H]3c2ccc(F)cc2)cc1F (single isomer, unassigned) [Example 14]
0.064 µM	COc1cc(Nc2nc3n(n2)CCCCC3c2ccc(-n3cncn3)cc2)ccc1-n1cnc(Cl)c1 (centres unmarked) [Example 172, 9-(4-(1H-1,2,4-triazol-1-yl)phenyl)-N-(4-(4-chloro-1H-imidazol-1-yl)-3-methoxyphenyl)-6,7,8,9-tetrahydro-5H-[1,2,4]triazolo[1,5-a]azepin-2-amine 2,2,2-trifluoroacetate]

Same assay, conditions: 19 h, H4 APP751 SWE clone 8.20 cells, 19 h incubation; read-out: Activity Rating (based on Aβ42 cellular IC50 values)

IC50	SMILES
0.01 to 0.1 µM	Cc1ncnn1-c1ccc(Nc2nc3n(n2)CCCCC3c2ccc(F)cc2)cc1F (centres unmarked) [Example 93, N-(3-fluoro-4-(5-methyl-1H-1,2,4-triazol-1-yl)phenyl)-9-(4-fluorophenyl)-6,7,8,9-tetrahydro-5H-[1,2,4]triazolo[1,5-a]azepin-2-amine]
0.01 to 0.1 µM	CO/N=C1/CCn2nc(Nc3ccc(-n4cnc(Cl)c4)c(OC)c3)nc2C(c2ccc(F)cc2)C1 (centres unmarked) [Example 138, (E)-2-(4-(4-chloro-1H-imidazol-1-yl)-3-methoxyphenylamino)-9-(4-fluorophenyl)-8,9-dihydro-5H-[1,2,4]triazolo[1,5-a]azepin-7(6H)-one O-methyl oxime 2,2,2-trifluoroacetate]
0.01 to 0.1 µM	COc1cc(Nc2nc3n(n2)CCCCC3c2ccc(OC(F)(F)F)cc2)c(F)cc1-n1cnc(C)n1 (centres unmarked) [Example 175, N-(2-fluoro-5-methoxy-4-(3-methyl-1H-1,2,4-triazol-1-yl)phenyl)-9-(4-(trifluoromethoxy)phenyl)-6,7,8,9-tetrahydro-5H-[1,2,4]triazolo[1,5-a]azepin-2-amine]
0.1 to 1 µM	COc1cc(Nc2nc3n(n2)CCCC[C@@H]3c2ccc(OC(F)(F)F)cc2)cc(F)c1-n1cnc(C)n1 (single isomer, unassigned) [Example 169]
0.01 to 0.1 µM	Cc1ncn(-c2ccc(Nc3nc4n(n3)CCC[C@@H]4c3ccc(OC(F)(F)F)cc3)cc2F)n1 (single isomer, unassigned) [Example 124]
0.01 to 0.1 µM	COc1cc(Nc2nc3n(n2)CCCCC3c2ccc(S(=O)(=O)C(F)(F)F)cc2)ccc1-n1cnc(C)n1 (centres unmarked) [Example 130, N-(3-methoxy-4-(3-methyl-1H-1,2,4-triazol-1-yl)phenyl)-9-(4-(trifluoromethylsulfonyl)phenyl)-6,7,8,9-tetrahydro-5H-[1,2,4]triazolo[1,5-a]azepin-2-amine 2,2,2-trifluoroacetate]
0.01 to 0.1 µM	COc1cc(Nc2nc3n(n2)CCCC[C@H]3c2ccc(OCC(F)F)cc2)ccc1-n1cnc(Cl)c1 (single isomer, unassigned) [Example 162]
0.1 to 1 µM	Cc1ncn(-c2ccc(Nc3nc4n(n3)CCC[C@H]4c3ccc(OC(F)(F)F)cc3)cc2F)n1 (single isomer, unassigned) [Example 123]
< 0.01 µM	COc1cc(Nc2nc3n(n2)CCCCC3c2ccccc2F)ccc1-n1cnc(Cl)c1 (centres unmarked) [Example 56, N-(4-(4-chloro-1H-imidazol-1-yl)-3-methoxyphenyl)-9-(2-fluorophenyl)-6,7,8,9-tetrahydro-5H-[1,2,4]triazolo[1,5-a]azepin-2-amine]
< 0.01 µM	COc1cc(Nc2nc3n(n2)CC[C@@](C)(O)C[C@@H]3c2ccc(F)cc2)ccc1-n1cnc(Cl)c1 (single isomer, unassigned) [Example 148]
0.01 to 0.1 µM	COc1cc(Nc2nc3c(s2)CCCC3c2ccccc2)ccc1-n1cnc(Cl)c1 (centres unmarked) [Example 68, N-(4-(4-chloro-1H-imidazol-1-yl)-3-methoxyphenyl)-4-phenyl-4,5,6,7-tetrahydrobenzo[d]thiazol-2-amine]
0.01 to 0.1 µM	Cc1ncn(-c2ccc(Nc3nc4n(n3)CCCC[C@@H]4c3ccc(OCC(F)(F)F)cc3)cc2F)n1 (single isomer, unassigned) [Example 115]
< 0.01 µM	COc1cc(Nc2nc3n(n2)CCCC[C@H]3c2ccc(F)cc2F)ccc1-n1cnc(Cl)c1 (single isomer, unassigned) [Example 36]
< 0.01 µM	COc1cc(Nc2nc3n(n2)CCCCC3c2cccc(Cl)c2)ccc1-n1cnc(Cl)c1 (centres unmarked) [Example 53, N-(4-(4-chloro-1H-imidazol-1-yl)-3-methoxyphenyl)-9-(3-chlorophenyl)-6,7,8,9-tetrahydro-5H-[1,2,4]triazolo azepin-2-amine]
0.01 to 0.1 µM	Cc1ncnn1-c1ccc(Nc2nc3n(n2)CCCC[C@H]3c2ccc(OCC(F)F)cc2)cc1F (single isomer, unassigned) [Example 120]
< 0.01 µM	CCC1(O)CCn2nc(Nc3ccc(-n4cnc(Cl)c4)c(OC)c3)nc2C(c2ccc(F)cc2)C1 (centres unmarked) [Example 146, 2-(4-(4-chloro-1H-imidazol-1-yl)-3-methoxyphenylamino)-7-ethyl-9-(4-fluorophenyl)-6,7,8,9-tetrahydro-5H-[1,2,4]triazolo[1,5-a]azepin-7-ol]
0.01 to 0.1 µM	COc1cc(Nc2nc3n(n2)CCCC[C@@H]3c2ccc(OC(F)(F)F)cc2)c(F)cc1-n1cnc(C)n1 (single isomer, unassigned) [Example 177]
0.01 to 0.1 µM	Cc1ncn(-c2ccc(Nc3nc4n(n3)CCCCC4c3ccc(F)cc3)cc2F)n1 (centres unmarked) [Example 25, N-(3-fluoro-4-(3-methyl-1H-1,2,4-triazol-1-yl)phenyl)-9-(4-fluorophenyl)-6,7,8,9-tetrahydro-5H-[1,2,4]triazolo[1,5-a]azepin-2-amine]
0.01 to 0.1 µM	CCOc1ccc(C2CCCCn3nc(Nc4ccc(-n5cnc(Cl)c5)c(OC)c4)nc32)cc1 (centres unmarked) [Example 131, N-(4-(4-chloro-1H-imidazol-1-yl)-3-methoxyphenyl)-9-(4-ethoxyphenyl)-6,7,8,9-tetrahydro-5H-[1,2,4]triazolo[1,5-a]azepin-2-amine 2,2,2-trifluoroacetate]
< 0.01 µM	COc1cc(Nc2nc3n(n2)CCCC[C@H]3c2ccc(F)cc2)ccc1-n1cnc(Cl)n1 (single isomer, unassigned) [Example 87]
< 0.01 µM	COc1cc(Nc2nc3n(n2)CCCC[C@@H]3c2ccccc2F)ccc1-n1cnc(Cl)c1 (single isomer, unassigned) [Example 59]
< 0.01 µM	COc1cc(Nc2nc3n(n2)CC=CC[C@@H]3c2ccc(F)cc2)ccc1-n1cnc(Cl)c1 (single isomer, unassigned) [Example 3]
0.01 to 0.1 µM	COc1cc(Nc2nc3n(n2)CCCC[C@@H]3c2ccc(OCC(F)(F)F)cc2)ccc1-n1cnc(Cl)c1 (single isomer, unassigned) [Example 107]
< 0.01 µM	COc1cc(Nc2nc3n(n2)CCCCC3c2ccccc2)ccc1-n1cnc(Cl)c1 (centres unmarked) [Example 159, 2,2,2-trifluoroacetate]
0.01 to 0.1 µM	COc1cc(Nc2nc3n(n2)C[C@H](O)[C@H](O)C[C@H]3c2ccc(F)cc2)ccc1-n1cnc(Cl)c1 (relative stereo) [Example 64, rel-(6S,7R,9S)-2-(4-(4-chloro-1H-imidazol-1-yl)-3-methoxyphenylamino)-9-(4-fluorophenyl)-6,7,8,9-tetrahydro-5H-[1,2,4]triazolo[1,5-a]azepine-6,7-diol 2,2,2-trifluoroacetate]
